Experimental data from patent US10125095B2, “Abscisic acid derivative” (NATIONAL UNIVERSITY CORPORATION SHIZUOKA UNIVERSITY, priority 2014, dated 2018).

Key:
[1] = target: T1, PYL1 (Arabidopsis thaliana, UniProt Q8VZS8); experiment: Protein dephosphorylation enzyme activity test, PYL1; assay type: biochemical, thale cress; conditions: control = 100%
T1 construct: 6xHis (N); made in house; host or cells: Escherichia coli BL21-codonplus(DE3)-RIPL (PYL); BL21(DE3)pLysS (HAB1)
T1 sequence (Q8VZS8 1-221): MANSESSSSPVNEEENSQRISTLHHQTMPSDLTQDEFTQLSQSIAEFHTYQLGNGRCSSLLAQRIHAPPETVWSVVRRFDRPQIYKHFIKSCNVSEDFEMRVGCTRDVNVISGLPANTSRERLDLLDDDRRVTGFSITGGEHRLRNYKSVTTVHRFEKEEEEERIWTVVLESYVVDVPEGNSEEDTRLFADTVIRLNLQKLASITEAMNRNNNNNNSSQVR
Description: (§1) A plasmid (pGex-2T-GST-HAB1 or pET28-6×His-PYL) encoded with PYR/PYL/RCAR proteins (PYL, abscisic acid receptor) or protein dephosphorylation enzyme HAB1 of thale cress was transformed to Escherichia coli (HAB1:BL21(DE3)pLysS, PYL:BL21-codonplus(DE3)-RIPL). Isopropyl-β-thiogalactopyranoside was added to the culture broth, which had been subjected to pre-culture (30° C., 180 rpm, 15 hours) and main culture (30° C., 180 rpm, 4 hours), and the protein-expressed (16° C., 150 rpm, 18 hours) crude enzyme solution was purified using FPLC thereby preparing the recombined PYL (PYR1, PYL1-6, PYL8-10) and HAB1. β-Mercaptoethanol, a manganese chloride aqueous solution, HAB1, PYL, a solution of the sample in dimethylsulfoxide and ultrapure water were sequentially added to a 96-well plate, allowed to stand at 22° C. for 30 minutes. Subsequently p-nitrophenylphosphate, which is the artificial substrate of HAB1, was added thereto to start the reaction, and the plate was placed in a microplate reader (TECAN, Infinite™ N200 NanoQuant). The absorbance at 405 nm due to p-nitrophenol, which is the hydrolysate of p-nitrophenylphosphate, was measured 3 minutes later from the reaction initiation, and HAB1 activity was calculated by the following formula (2). Note that the fraction to which only dimethylsulfoxide was added was considered to be the control and the activity thereof was defined as 100%. […] HAB1 specific activity (%)=Absorbance when sample was added/Absorbance of control×100 (2)

[2] = target: T2, PYL6 (Arabidopsis thaliana, UniProt Q8S8E3); experiment: Protein dephosphorylation enzyme activity test, PYL6; assay type: biochemical, thale cress; conditions: control = 100%
T2 construct: 6xHis (N); made in house; host or cells: Escherichia coli BL21-codonplus(DE3)-RIPL (PYL); BL21(DE3)pLysS (HAB1)
T2 sequence (Q8S8E3 1-215): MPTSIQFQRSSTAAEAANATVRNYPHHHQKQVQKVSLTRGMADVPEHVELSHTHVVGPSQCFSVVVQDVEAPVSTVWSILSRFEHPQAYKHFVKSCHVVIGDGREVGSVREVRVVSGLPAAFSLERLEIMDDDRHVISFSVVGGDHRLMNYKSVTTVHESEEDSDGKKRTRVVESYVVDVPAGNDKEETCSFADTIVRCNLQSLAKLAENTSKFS
Description: as §1

[3] = target: T3, PYL5 (Arabidopsis thaliana, UniProt Q9FLB1); experiment: Protein dephosphorylation enzyme activity test, PYL5; assay type: biochemical, thale cress; conditions: control = 100%
T3 construct: 6xHis (N); made in house; host or cells: Escherichia coli BL21-codonplus(DE3)-RIPL (PYL); BL21(DE3)pLysS (HAB1)
T3 sequence (Q9FLB1 1-203): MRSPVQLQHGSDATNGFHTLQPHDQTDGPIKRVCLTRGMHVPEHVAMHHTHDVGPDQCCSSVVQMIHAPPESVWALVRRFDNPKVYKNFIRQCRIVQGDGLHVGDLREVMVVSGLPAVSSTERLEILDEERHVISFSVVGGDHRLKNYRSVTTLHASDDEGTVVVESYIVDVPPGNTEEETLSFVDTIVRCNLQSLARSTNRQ
Description: as §1

[4] = target: T4, PYL4 (Arabidopsis thaliana, UniProt O80920); experiment: Protein dephosphorylation enzyme activity test, PYL4; assay type: biochemical, thale cress; conditions: control = 100%
T4 construct: 6xHis (N); made in house; host or cells: Escherichia coli BL21-codonplus(DE3)-RIPL (PYL); BL21(DE3)pLysS (HAB1)
T4 sequence (O80920 1-207): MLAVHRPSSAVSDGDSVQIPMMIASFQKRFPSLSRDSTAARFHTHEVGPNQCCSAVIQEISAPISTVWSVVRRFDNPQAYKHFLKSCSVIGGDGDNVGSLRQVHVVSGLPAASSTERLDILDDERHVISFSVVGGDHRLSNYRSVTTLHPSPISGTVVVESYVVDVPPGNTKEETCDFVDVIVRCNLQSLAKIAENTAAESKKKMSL
Description: as §1

[5] = target: T5, PYL8 (Arabidopsis thaliana, UniProt Q9FGM1); experiment: Protein dephosphorylation enzyme activity test, PYL8; assay type: biochemical, thale cress; conditions: control = 100%
T5 construct: 6xHis (N); made in house; host or cells: Escherichia coli BL21-codonplus(DE3)-RIPL (PYL); BL21(DE3)pLysS (HAB1)
T5 sequence (Q9FGM1 1-188): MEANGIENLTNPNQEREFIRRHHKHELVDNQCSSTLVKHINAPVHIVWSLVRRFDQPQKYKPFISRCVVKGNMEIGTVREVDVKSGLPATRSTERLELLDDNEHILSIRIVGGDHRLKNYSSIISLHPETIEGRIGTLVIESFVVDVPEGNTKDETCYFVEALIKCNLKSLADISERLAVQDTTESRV
Description: as §1

[6] = target: T6, PYL3 (Arabidopsis thaliana, UniProt Q9SSM7); experiment: Protein dephosphorylation enzyme activity test, PYL3; assay type: biochemical, thale cress; conditions: control = 100%
T6 construct: 6xHis (N); made in house; host or cells: Escherichia coli BL21-codonplus(DE3)-RIPL (PYL); BL21(DE3)pLysS (HAB1)
T6 sequence (Q9SSM7 1-209): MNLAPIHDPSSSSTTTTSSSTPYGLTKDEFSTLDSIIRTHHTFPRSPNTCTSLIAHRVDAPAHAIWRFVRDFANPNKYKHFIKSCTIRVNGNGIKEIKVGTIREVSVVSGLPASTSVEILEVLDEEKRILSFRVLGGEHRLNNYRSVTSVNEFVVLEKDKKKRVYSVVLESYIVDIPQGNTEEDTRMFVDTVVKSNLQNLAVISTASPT
Description: as §1

[7] = target: T7, recombined PYL5 (Arabidopsis thaliana, UniProt Q9FLB1); experiment: Bonding affinity measurement using an isothermal titration calorimeter; assay type: binding, thale cress; conditions: ITC, 20° C., sodium phosphate buffer
T7 construct: 6xHis (N); made in house; host or cells: Escherichia coli BL21-codonplus(DE3)-RIPL
T7 sequence (Q9FLB1 1-203): T3 sequence (Q9FLB1 1-203)
Description: A sodium phosphate buffer solution of a recombined PYL5 was prepared in the same procedure as in Test Example 5, and put in a reaction cell of an isothermal titration calorimeter (GE Healthcare, MicroCal iTC200), and a sodium phosphate buffer solution of the compound of Example 1 was put in the syringe. Then, the calorimeter was set to 20° C. and the measurement was carded out. The same measurement as above was also carried out for the compounds of Examples 7 to 9.

[8] = target: T8, PYL2 (Arabidopsis thaliana, UniProt O80992); experiment: Protein dephosphorylation enzyme activity test, PYL2; assay type: biochemical, thale cress; conditions: control = 100%
T8 construct: 6xHis (N); made in house; host or cells: Escherichia coli BL21-codonplus(DE3)-RIPL (PYL); BL21(DE3)pLysS (HAB1)
T8 sequence (O80992 1-190): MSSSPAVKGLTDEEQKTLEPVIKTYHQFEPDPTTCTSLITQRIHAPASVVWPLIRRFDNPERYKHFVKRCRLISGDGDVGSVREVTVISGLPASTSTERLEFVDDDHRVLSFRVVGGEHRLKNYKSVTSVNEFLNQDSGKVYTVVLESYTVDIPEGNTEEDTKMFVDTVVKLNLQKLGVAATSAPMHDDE
Description: as §1

SMILES | HAB1 Specific activity (%) PYL1 ([1]; sample alone) [%] | HAB1 Specific activity (%) PYL6 ([2]; sample alone) [%] | HAB1 Specific activity (%) PYL5 ([3]; sample alone) [%] | HAB1 Specific activity (%) PYL4 ([4]; sample alone) [%] | HAB1 Specific activity (%) PYL8 ([5]; sample alone) [%] | HAB1 Specific activity (%) PYL3 ([6]; sample alone) [%] | Kd [7] [nM] | ΔG [7] [kcal/mol] | ΔH [7] [kcal/mol] | −TΔS [7] [kcal/mol] | HAB1 Specific activity (%) PYL2 ([8]; sample alone) [%] | HAB1 Specific activity (%) PYL1 ([1]; ABA + compound) [%] | HAB1 Specific activity (%) PYL6 ([2]; ABA + compound) [%] | HAB1 Specific activity (%) PYL5 ([3]; ABA + compound) [%] | HAB1 Specific activity (%) PYL8 ([5]; ABA + compound) [%] | HAB1 Specific activity (%) PYL3 ([6]; ABA + compound) [%] | HAB1 Specific activity (%) PYL2 ([8]; ABA + compound) [%] | HAB1 Specific activity (%) PYL4 ([4]; ABA + compound) [%]
CC1=CC(=O)CC(C)(C)[C@@]1(O)/C=C/C(C)=C\C(=O)O [ABA, abscisic acid] | 18.6 | 19.5 | 15.5 | 18.2 | 13.9 | 16.8 | 880 ± 110 | -8.1 ± 0.1 | -7.8 ± 0.1 | -0.3 | 13.1 | – | – | – | – | – | – | –
CC1=C[C@@H](OCC#Cc2ccccc2)CC(C)(C)[C@@]1(O)/C=C/C(C)=C\C(=O)O [Example 1, (2Z,4E)-5-((1S,4S)-1-hydroxy-2,6,6-trimethyl-4-((3-phenylprop-2-yn-1-yl)oxy)cyclohex-2-en-1-yl)-3-methylpenta-2,4-dienoic acid] | 98.1 | 122 | 85.8 | 108 | 105 | 88.6 | 70 ± 20 | -9.6 ± 0.1 | -7.9 ± 0.1 | -1.7 | 96.6 | 55.6 | 87.6 | 87 | 76.9 | 49.2 | 84.8 | –
CC1=C[C@@H](OCC#Cc2ccc(C)cc2)CC(C)(C)[C@@]1(O)/C=C/C(C)=C\C(=O)O [Example 7] | 136 | 93.5 | 85.5 | 119 | 98.5 | 121 | 70 ± 20 | -9.6 ± 0.2 | -5.5 ± 0.1 | -4.2 | 133 | 87.7 | 61.0 | 74.6 | 98.7 | 61 | 113 | 101
